In brackets after ≈: the same amount, converted by molar mass.
How the values were obtained:
Candida albicans [1] = assay: Antifungal activity against Candida albicans after 48 hrs by broth microdilution method; type: functional
Nannizzia gypsea [2] = assay: Antifungal activity against Microsporum gypseum after 72 hrs by broth microdilution method; type: functional
[3] = test system: Trichophyton mentagrophytes; assay: Antifungal activity against Trichophyton mentagrophytes after 72 hrs by broth microdilution method; type: functional
Candida albicans [4] = assay: Fungicidal activity against Candida albicans measured after 72 hrs; type: functional
Nannizzia gypsea [5] = assay: Fungicidal activity against Microsporum gypseum measured after 96 hrs; type: functional
[6] = test system: Trichophyton mentagrophytes; assay: Fungicidal activity against Trichophyton mentagrophytes measured after 96 hrs; type: functional
Candida albicans [7] = assay: Inhibition of Candida albicans keratinase activity at 2 ppm incubated for 5 days under non-shaking condition and subsequent incubation for 5 days under shaking condition by UV-vis spectrophotometric analysis relative to control
Nannizzia gypsea [8] = assay: Inhibition of Microsporum gypseum keratinase activity at 4 ppm incubated for 5 days under non-shaking condition and subsequent incubation for 5 days under shaking condition by UV-vis spectrophotometric analysis relative to control
[9] = test system: Trichophyton mentagrophytes; assay: Inhibition of Trichophyton mentagrophytes keratinase activity at 4 ppm incubated for 5 days under non-shaking condition and subsequent incubation for 5 days under shaking condition by UV-vis spectrophotometric analysis relative to control
Candida albicans [10] = assay: Inhibition of ergosterol biosynthesis in Candida albicans at MIC by spectrophotometric method relative to control; type: functional
Nannizzia gypsea [11] = assay: Inhibition of ergosterol biosynthesis in Microsporum gypseum at MIC by spectrophotometric method relative to control; type: functional
[12] = test system: Trichophyton mentagrophytes; assay: Inhibition of ergosterol biosynthesis in Trichophyton mentagrophytes at MIC by spectrophotometric method relative to control; type: functional
Candida albicans [13] = assay: Antifungal activity against Candida albicans infected in guinea pig skin assessed as recovery from infection at 10 mg/g administered once daily via superficial route for 15 days measured after 30 days post last dose relative to control; type: functional
Nannizzia gypsea [14] = assay: Antifungal activity against Microsporum gypseum infected in guinea pig skin assessed as recovery from infection at 10 mg/g administered once daily via superficial route for 15 days measured after 30 days post last dose relative to control; type: functional
[15] = test system: Trichophyton mentagrophytes; assay: Antifungal activity against Trichophyton mentagrophytes infected in guinea pig skin assessed as recovery from infection at 10 mg/g administered once daily via superficial route for 15 days measured after 30 days post last dose relative to control; type: functional
Candida albicans [16] = assay: Inhibition of Candida albicans keratinase activity at MIC incubated for 5 days under non-shaking condition and subsequent incubation for 5 days under shaking condition by UV-vis spectrophotometric analysis relative to control
Nannizzia gypsea [17] = assay: Inhibition of Microsporum gypseum keratinase activity at MIC incubated for 5 days under non-shaking condition and subsequent incubation for 5 days under shaking condition by UV-vis spectrophotometric analysis relative to control
[18] = test system: Trichophyton mentagrophytes; assay: Inhibition of Trichophyton mentagrophytes keratinase activity at MIC incubated for 5 days under non-shaking condition and subsequent incubation for 5 days under shaking condition by UV-vis spectrophotometric analysis relative to control
Candida albicans [19] = assay: Antifungal activity against Candida albicans; type: functional
[20] = test system: Trichophyton mentagrophytes; assay: Antifungal activity against Trichophyton mentagrophytes; type: functional
Candida albicans [21] = assay: Inhibition of Candida albicans keratinase activity at 8 ppm incubated for 5 days under non-shaking condition and subsequent incubation for 5 days under shaking condition by UV-vis spectrophotometric analysis relative to control
Nannizzia gypsea [22] = assay: Inhibition of Microsporum gypseum keratinase activity at 8 ppm incubated for 5 days under non-shaking condition and subsequent incubation for 5 days under shaking condition by UV-vis spectrophotometric analysis relative to control
[23] = test system: Trichophyton mentagrophytes; assay: Inhibition of Trichophyton mentagrophytes keratinase activity at 16 ppm incubated for 5 days under non-shaking condition and subsequent incubation for 5 days under shaking condition by UV-vis spectrophotometric analysis relative to control
Fungi [24] = assay: Inhibition of fungal keratinase activity at 0.1 to 10 mg/ml relative to control
Fungi [25] = assay: Inhibition of fungal keratinase activity at 10 mg/ml relative to control
Trichophyton terrestre = assay: Inhibition of Trichophyton terrestre keratinase activity at 10 ug/ml incubated for 5 days under non-shaking condition and subsequent incubation for 5 days under shaking condition by UV-vis spectrophotometric analysis relative to control
Nannizzia gypsea [26] = assay: Inhibition of Microsporum gypseum keratinase activity at 10 ug/ml incubated for 5 days under non-shaking condition and subsequent incubation for 5 days under shaking condition by UV-vis spectrophotometric analysis relative to control
Trichophyton rubrum = assay: Inhibition of Trichophyton rubrum keratinase activity at 10 ug/ml incubated for 5 days under non-shaking condition and subsequent incubation for 5 days under shaking condition by UV-vis spectrophotometric analysis relative to control
Epidermophyton floccosum = assay: Inhibition of Epidermophyton floccosum keratinase activity at 10 ug/ml incubated for 5 days under non-shaking condition and subsequent incubation for 5 days under shaking condition by UV-vis spectrophotometric analysis relative to control

Compound	MIC (Candida albicans [1])	MIC (Nannizzia gypsea [2])	MIC [3]	MFC (Candida albicans [4])	MFC (Nannizzia gypsea [5])	MFC [6]	other results
CN1CCC(=NNc2nc(-c3ccccc3)c(/N=N/c3ccccc3)s2)CC1	2 µg/mL (≈ 5.12 µM)	4 µg/mL (≈ 10.2 µM)	4 µg/mL (≈ 10.2 µM)	4 µg/mL (≈ 10.2 µM)	16 µg/mL (≈ 41 µM)	16 µg/mL (≈ 41 µM)	inhibition (Candida albicans [7]): 77 to 94%; inhibition (Nannizzia gypsea [8]): 77 to 94%; inhibition [9]: 77 to 94%
CN1CCC(=NNC2=NC(=O)/C(=N\Nc3ccccc3)S2)CC1	2 µg/mL (≈ 6.05 µM)	4 µg/mL (≈ 12.1 µM)	4 µg/mL (≈ 12.1 µM)	4 µg/mL (≈ 12.1 µM)	8 µg/mL (≈ 24.2 µM)	16 µg/mL (≈ 48.4 µM)	inhibition (Candida albicans [7]): 96%; inhibition (Nannizzia gypsea [8]): 94%; inhibition [9]: 91.4%; inhibition (INH) (Candida albicans [10]): 73.3%; inhibition (INH) (Nannizzia gypsea [11]): 86.4%; inhibition (INH) [12]: 74.3%; Activity (Candida albicans [13]): 100%; Activity (Nannizzia gypsea [14]): 91%; Activity [15]: 87%
Cc1nc(NN=C2CCN(C)CC2)sc1/N=N/c1ccccc1	16 µg/mL (≈ 48.7 µM)	64 µg/mL (≈ 195 µM)	64 µg/mL (≈ 195 µM)	128 µg/mL (≈ 390 µM)	128 µg/mL (≈ 390 µM)	245 µg/mL (≈ 746 µM)	inhibition (Candida albicans [16]): 33.4 to 46.3%; inhibition (Nannizzia gypsea [17]): 33.4 to 46.3%; inhibition [18]: 33.4 to 46.3%
Cc1nc(NN=C2CCN(C)CC2)sc1/N=N/c1ccc([N+](=O)[O-])cc1	64 µg/mL (≈ 171 µM)	128 µg/mL (≈ 343 µM)	128 µg/mL (≈ 343 µM)	256 µg/mL (≈ 686 µM)	> 256 µg/mL	> 256 µg/mL	inhibition (Candida albicans [16]): 10.1 to 31.4%; inhibition (Nannizzia gypsea [17]): 10.1 to 31.4%; inhibition [18]: 10.1 to 31.4%; inhibition (INH) (Candida albicans [10]): 28.5%; inhibition (INH) (Nannizzia gypsea [11]): 33.1%; inhibition (INH) [12]: 21.4%
CN1CCC(=NNC2=NC(=O)/C(=N\Nc3cccc(Cl)c3)S2)CC1	32 µg/mL (≈ 87.7 µM)	64 µg/mL (≈ 175 µM)	128 µg/mL (≈ 351 µM)	128 µg/mL (≈ 351 µM)	256 µg/mL (≈ 702 µM)	> 256 µg/mL	
OC(Cn1cncn1)(Cn1cncn1)c1ccc(F)cc1F [FLUCONAZOLE]	8 µg/mL (≈ 26.1 µM)	8 µg/mL (≈ 26.1 µM)	16 µg/mL (≈ 52.2 µM)	32 µg/mL (≈ 104 µM)	64 µg/mL (≈ 209 µM)	64 µg/mL (≈ 209 µM)	inhibition (Candida albicans [16]): 61.3 to 72.9%; inhibition (Nannizzia gypsea [17]): 61.3 to 72.9%; inhibition [18]: 61.3 to 72.9%; Activity (Candida albicans [13]): 97%; Activity (Nannizzia gypsea [14]): 84%; Activity [15]: 77%; MIC (Candida albicans [19]): 0.34 µg/mL (≈ 1.11 µM); MIC [20]: 23.9 µg/mL (≈ 78 µM)
CN1CCC(=NNc2nc(-c3ccccc3)c(/N=N/c3ccc([N+](=O)[O-])cc3)s2)CC1	8 µg/mL (≈ 18.4 µM)	8 µg/mL (≈ 18.4 µM)	16 µg/mL (≈ 36.7 µM)	16 µg/mL (≈ 36.7 µM)	32 µg/mL (≈ 73.5 µM)	32 µg/mL (≈ 73.5 µM)	inhibition (Candida albicans [21]): 66.1 to 92.2%; inhibition (Nannizzia gypsea [22]): 66.1 to 92.2%; inhibition [23]: 66.1 to 92.2%
COc1ccc(/N=N/c2sc(NN=C3CCN(C)CC3)nc2C)cc1	64 µg/mL (≈ 179 µM)	128 µg/mL (≈ 357 µM)	128 µg/mL (≈ 357 µM)	128 µg/mL (≈ 357 µM)	256 µg/mL (≈ 714 µM)	> 256 µg/mL	
CN1CCC(=NNc2nc(-c3ccccc3)c(/N=N/c3ccc(Cl)cc3)s2)CC1	4 µg/mL (≈ 9.41 µM)	4 µg/mL (≈ 9.41 µM)	8 µg/mL (≈ 18.8 µM)	8 µg/mL (≈ 18.8 µM)	16 µg/mL (≈ 37.7 µM)	32 µg/mL (≈ 75.3 µM)	
CN1CCC(=NNC2=NC(=O)/C(=N\Nc3ccc(Cl)cc3)S2)CC1	64 µg/mL (≈ 175 µM)	128 µg/mL (≈ 351 µM)	128 µg/mL (≈ 351 µM)	128 µg/mL (≈ 351 µM)	256 µg/mL (≈ 702 µM)	> 256 µg/mL	
COc1ccc(/N=N/c2sc(NN=C3CCN(C)CC3)nc2-c2ccccc2)cc1	2 µg/mL (≈ 4.76 µM)	4 µg/mL (≈ 9.51 µM)	4 µg/mL (≈ 9.51 µM)	4 µg/mL (≈ 9.51 µM)	8 µg/mL (≈ 19 µM)	32 µg/mL (≈ 76.1 µM)	inhibition (Candida albicans [7]): 88.8 to 95%; inhibition (Nannizzia gypsea [8]): 88.8 to 95%; inhibition [9]: 88.8 to 95%; Activity (Candida albicans [13]): 100%; Activity (Nannizzia gypsea [14]): 92%; Activity [15]: 85%
Cc1nc(NN=C2CCN(C)CC2)sc1/N=N/c1ccc(Cl)cc1	16 µg/mL (≈ 44.1 µM)	16 µg/mL (≈ 44.1 µM)	16 µg/mL (≈ 44.1 µM)	32 µg/mL (≈ 88.2 µM)	128 µg/mL (≈ 353 µM)	128 µg/mL (≈ 353 µM)	
CN1CCC(=NNC2=NC(=O)/C(=N\Nc3ccc([N+](=O)[O-])cc3)S2)CC1	64 µg/mL (≈ 170 µM)	128 µg/mL (≈ 341 µM)	128 µg/mL (≈ 341 µM)	256 µg/mL (≈ 682 µM)	> 256 µg/mL	> 256 µg/mL	
Cc1nc(NN=C2CCN(C)CC2)sc1/N=N/c1ccc(Cl)cc1Cl	16 µg/mL (≈ 40.3 µM)	64 µg/mL (≈ 161 µM)	64 µg/mL (≈ 161 µM)	128 µg/mL (≈ 322 µM)	128 µg/mL (≈ 322 µM)	> 256 µg/mL	
Cc1nc(NN=C2CCN(C)CC2)sc1/N=N/c1cccc(Cl)c1	32 µg/mL (≈ 88.2 µM)	64 µg/mL (≈ 176 µM)	128 µg/mL (≈ 353 µM)	128 µg/mL (≈ 353 µM)	256 µg/mL (≈ 705 µM)	> 256 µg/mL	
Cc1nc(NN=C2CCN(C)CC2)sc1/N=N/c1ccccc1Cl	32 µg/mL (≈ 88.2 µM)	64 µg/mL (≈ 176 µM)	64 µg/mL (≈ 176 µM)	128 µg/mL (≈ 353 µM)	256 µg/mL (≈ 705 µM)	> 256 µg/mL	
N#C/C(=C1/SCC(c2ccccc2Cl)S1)n1ccnc1 (stereo not drawn)							inhibition (Fungi [24]): 40 to 70%
Cc1ccc(/N=N/c2sc(NN=C3CCN(C)CC3)nc2C)cc1	16 µg/mL (≈ 46.7 µM)	32 µg/mL (≈ 93.4 µM)	32 µg/mL (≈ 93.4 µM)	64 µg/mL (≈ 187 µM)	128 µg/mL (≈ 374 µM)	256 µg/mL (≈ 748 µM)	
Cc1ccc(/N=N/c2sc(NN=C3CCN(C)CC3)nc2-c2ccccc2)cc1	2 µg/mL (≈ 4.94 µM)	4 µg/mL (≈ 9.89 µM)	4 µg/mL (≈ 9.89 µM)	4 µg/mL (≈ 9.89 µM)	8 µg/mL (≈ 19.8 µM)	16 µg/mL (≈ 39.6 µM)	
c1ccc(-c2ccc(C(c3ccccc3)n3ccnc3)cc2)cc1 (stereo not drawn)							inhibition (Fungi [25]): 50%
CN(C/C=C/C#CC(C)(C)C)Cc1cccc2ccccc12							inhibition (Trichophyton terrestre): 66%; inhibition (Nannizzia gypsea [26]): 71.9%; inhibition (Trichophyton rubrum): 51.7%; inhibition (Epidermophyton floccosum): 72.3%
Cc1ccccc1/N=N/c1sc(NN=C2CCN(C)CC2)nc1C	8 µg/mL (≈ 23.4 µM)	32 µg/mL (≈ 93.4 µM)	32 µg/mL (≈ 93.4 µM)	32 µg/mL (≈ 93.4 µM)	64 µg/mL (≈ 187 µM)	128 µg/mL (≈ 374 µM)	
